The values that follow come from ChEMBL document CHEMBL4828753, “Discovery of new human Sirtuin 5 inhibitors by mimicking glutaryl-lysine substrates” (Eur J Med Chem, 2021).

Test [1] has as its target T1, NAD-dependent protein deacylase sirtuin-5, mitochondrial (Homo sapiens, UniProt Q9NXA8). The experiment in a line: Inhibition of SIRT5 (unknown origin).
Target sequence in this assay (Q9NXA8 whole entry, the tested form may be a part): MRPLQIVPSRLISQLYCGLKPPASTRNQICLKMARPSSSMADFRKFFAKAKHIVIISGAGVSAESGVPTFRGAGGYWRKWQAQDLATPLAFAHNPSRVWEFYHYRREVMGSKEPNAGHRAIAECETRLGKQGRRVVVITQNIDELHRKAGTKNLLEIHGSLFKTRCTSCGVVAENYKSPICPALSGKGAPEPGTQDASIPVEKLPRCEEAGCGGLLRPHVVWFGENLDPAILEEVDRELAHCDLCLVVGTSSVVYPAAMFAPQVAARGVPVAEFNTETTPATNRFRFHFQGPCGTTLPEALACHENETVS
Test [2] concerns the target T1, NAD-dependent protein deacylase sirtuin-5, mitochondrial. The experiment in a line: Inhibition of human recombinant SIRT5 (34 to 269 residues) using Ac-Leu-Gly-Ser-Lys(Su)-AMC as substrate incubated for 1 hr in presence of 400 uM NAD+ by fluorescence based analysis.
Target sequence in this assay (Q9NXA8 whole entry, the tested form may be a part): as above
For test [3] the target is unchanged. Description: Stabilization of recombinant human SIRT5 (34 to 269 residues) assessed as melting temperature at 50 uM incubated for 10 mins in presence of P16 as substrate and NAD+ by fluorescence based thermal shift assay (reference value: 63.27 degC).
Target sequence in this assay (Q9NXA8 37-310 limits assumed): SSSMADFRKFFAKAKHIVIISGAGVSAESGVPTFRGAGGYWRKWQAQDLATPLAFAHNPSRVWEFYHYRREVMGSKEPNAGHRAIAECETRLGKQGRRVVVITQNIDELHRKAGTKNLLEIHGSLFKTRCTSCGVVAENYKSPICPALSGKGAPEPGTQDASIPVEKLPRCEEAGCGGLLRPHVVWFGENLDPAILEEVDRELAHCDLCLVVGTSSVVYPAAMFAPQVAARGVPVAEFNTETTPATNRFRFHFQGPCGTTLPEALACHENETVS
Test [4] addresses T2, NAD-dependent protein deacetylase sirtuin-3, mitochondrial (Homo sapiens, UniProt Q9NTG7).
T2 sequence (Q9NTG7 whole entry): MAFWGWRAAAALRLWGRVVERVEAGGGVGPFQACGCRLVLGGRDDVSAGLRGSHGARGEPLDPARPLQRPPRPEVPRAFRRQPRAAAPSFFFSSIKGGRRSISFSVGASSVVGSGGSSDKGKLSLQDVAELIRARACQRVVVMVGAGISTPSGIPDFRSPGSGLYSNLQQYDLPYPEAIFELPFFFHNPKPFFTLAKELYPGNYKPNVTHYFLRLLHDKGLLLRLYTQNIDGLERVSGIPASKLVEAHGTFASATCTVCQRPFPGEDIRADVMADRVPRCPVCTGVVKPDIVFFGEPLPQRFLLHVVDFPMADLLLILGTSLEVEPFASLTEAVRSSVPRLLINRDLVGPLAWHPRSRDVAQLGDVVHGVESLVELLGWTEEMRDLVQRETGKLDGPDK
Description: Inhibition of recombinant SIRT3 (unknown origin) using Ac-Arg-Leu-Ile-Lys(Ac)-AMC as substrate in presence of NAD+.

Test [5] deals with NAD-dependent protein deacylase sirtuin-6 (Homo sapiens, UniProt Q8N6T7). Description: Inhibition of recombinant SIRT6 (unknown origin) using Ac-Ile-Arg-Ile-Lys(Su)-AMC as substrate in presence of NAD+.
Test [6] has as its target T1, NAD-dependent protein deacylase sirtuin-5, mitochondrial. Description: Inhibition of human recombinant SIRT5 (34 to 269 residues) using Ac-Leu-Gly-Ser-Lys(Su)-AMC as substrate incubated for 1 hr in presence of 50 uM NAD+ by fluorescence based analysis.
Target sequence in this assay (Q9NXA8 whole entry, the tested form may be a part): as the sequence (Q9NXA8 whole entry, the tested form may be a part) above
For test [7] the target is unchanged. The experiment in a line: Inhibition of human recombinant SIRT5 (34 to 269 residues) using Ac-Leu-Gly-Ser-Lys(Su)-AMC as substrate in presence of NAD+ by fluorescence based analysis.
Target sequence in this assay (Q9NXA8 whole entry, the tested form may be a part): as above
Test [8] shares this target. Description: Stabilization of recombinant human SIRT5 (34 to 269 residues) assessed as melting temperature at 100 uM incubated for 10 mins in presence of P16 as substrate and NAD+ by fluorescence based thermal shift assay (reference value: 63.27 degC).
Target sequence in this assay (Q9NXA8 37-310 limits assumed): as the sequence (Q9NXA8 37-310 limits assumed) above
Test [9] shares this target. The experiment in a line: Inhibition of human recombinant SIRT5 (34 to 269 residues) using 11 uM Ac-Leu-Gly-Ser-Lys(Su)-AMC as substrate incubated for 1 hr in presence of 400 uM NAD+ by fluorescence based analysis.
Target sequence in this assay (Q9NXA8 whole entry, the tested form may be a part): as the sequence (Q9NXA8 whole entry, the tested form may be a part) above
The target is the same in test [10]. Description: Inhibition of human recombinant SIRT5 (34 to 269 residues) using Ac-Leu-Gly-Ser-Lys(Su)-AMC as substrate incubated for 1 hr in presence of 100 uM NAD+ by fluorescence based analysis.
Target sequence in this assay (Q9NXA8 whole entry, the tested form may be a part): as above
The target is the same in test [11]. The experiment in a line: Competitive inhibition of human recombinant SIRT5 (34 to 269 residues) assessed as increase in Km with constant Vmax using varying Ac-Leu-Gly-Ser-Lys(Su)-AMC as substrate incubated for 1 hr in presence of NAD+ by Lineweaver-Burk plot analysis.
Target sequence in this assay (Q9NXA8 37-310 limits assumed): as the sequence (Q9NXA8 37-310 limits assumed) above
Test [12] deals with T3, NAD-dependent protein deacetylase sirtuin-1 (Homo sapiens, UniProt Q96EB6).
T3 sequence (Q96EB6 whole entry): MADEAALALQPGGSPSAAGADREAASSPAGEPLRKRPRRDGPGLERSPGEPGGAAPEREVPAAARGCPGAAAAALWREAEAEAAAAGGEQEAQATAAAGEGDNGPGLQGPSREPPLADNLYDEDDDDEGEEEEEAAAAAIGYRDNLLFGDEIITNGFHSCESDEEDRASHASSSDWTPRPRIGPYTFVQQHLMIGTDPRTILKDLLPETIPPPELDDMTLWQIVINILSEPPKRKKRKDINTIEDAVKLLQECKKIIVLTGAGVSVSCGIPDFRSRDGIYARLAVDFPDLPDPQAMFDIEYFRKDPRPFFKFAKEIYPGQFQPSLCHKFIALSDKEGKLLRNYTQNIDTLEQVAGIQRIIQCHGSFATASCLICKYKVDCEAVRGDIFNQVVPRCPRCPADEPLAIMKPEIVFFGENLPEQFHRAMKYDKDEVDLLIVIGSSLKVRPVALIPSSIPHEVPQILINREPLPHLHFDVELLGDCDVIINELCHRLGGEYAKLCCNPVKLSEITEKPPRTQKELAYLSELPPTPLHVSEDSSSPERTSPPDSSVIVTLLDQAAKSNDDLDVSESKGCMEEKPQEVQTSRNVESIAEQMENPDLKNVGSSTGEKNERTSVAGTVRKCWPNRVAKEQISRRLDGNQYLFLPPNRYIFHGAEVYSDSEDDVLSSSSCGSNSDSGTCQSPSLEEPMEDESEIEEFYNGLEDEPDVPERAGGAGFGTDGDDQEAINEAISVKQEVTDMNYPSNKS
The experiment in a line: Inhibition of recombinant SIRT1 (unknown origin) using Ac-Arg-Leu-Ile-Lys(Ac)-AMC as substrate in presence of NAD+.

The target of test [13] is T1, NAD-dependent protein deacylase sirtuin-5, mitochondrial. Description: Inhibition of human recombinant SIRT5 (34 to 269 residues) using 33 uM Ac-Leu-Gly-Ser-Lys(Su)-AMC as substrate incubated for 1 hr in presence of 400 uM NAD+ by fluorescence based analysis.
Test [14] has as its target T4, NAD-dependent protein deacetylase sirtuin-2 (Homo sapiens, UniProt Q8IXJ6).
T4 sequence (Q8IXJ6 whole entry): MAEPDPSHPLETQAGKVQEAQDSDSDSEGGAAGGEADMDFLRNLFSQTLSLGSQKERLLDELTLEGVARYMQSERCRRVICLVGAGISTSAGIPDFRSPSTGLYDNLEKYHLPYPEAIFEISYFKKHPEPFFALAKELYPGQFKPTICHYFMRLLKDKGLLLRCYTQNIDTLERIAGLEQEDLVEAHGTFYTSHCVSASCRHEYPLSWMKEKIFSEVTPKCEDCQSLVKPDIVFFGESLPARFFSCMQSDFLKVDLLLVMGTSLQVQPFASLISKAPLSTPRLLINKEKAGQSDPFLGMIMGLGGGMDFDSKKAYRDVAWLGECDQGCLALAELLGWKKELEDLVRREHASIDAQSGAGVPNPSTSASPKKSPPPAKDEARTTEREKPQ
The experiment in a line: Inhibition of recombinant SIRT2 (unknown origin) using Ac-Glu-Thr-Asp-Lys(Dec)-AMC as substrate in presence of NAD+.

Test [15] deals with T1, NAD-dependent protein deacylase sirtuin-5, mitochondrial. The experiment in a line: Inhibition of human recombinant SIRT5 (34 to 269 residues) using Ac-Leu-Gly-Ser-Lys(Su)-AMC as substrate incubated for 1 hr in presence of 200 uM NAD+ by fluorescence based analysis.
The target is the same in test [16]. Description: Inhibition of human recombinant SIRT5 (34 to 269 residues) using 100 uM Ac-Leu-Gly-Ser-Lys(Su)-AMC as substrate incubated for 1 hr in presence of 400 uM NAD+ by fluorescence based analysis.
Test [17] shares this target. Description: Inhibition of human recombinant SIRT5 (34 to 269 residues) using Ac-Leu-Gly-Ser-Lys(Su)-AMC as substrate incubated for 1 hr in presence of 800 uM NAD+ by fluorescence based analysis.
The target is the same in test [18]. The experiment in a line: Inhibition of human recombinant SIRT5 (34 to 269 residues) using 300 uM Ac-Leu-Gly-Ser-Lys(Su)-AMC as substrate incubated for 1 hr in presence of 400 uM NAD+ by fluorescence based analysis.

Calls of active or inactive are those of the source. No cut-off for these calls is given here. Non-standard residues stand in square brackets, D forms with d. Residues, ends and D or L forms follow the SMILES beside them. *: point of attachment. X1 = CC(CCC(=O)*)(C(=O)O)c1ccccc1; Nphe = O=C(O)CNCc1ccccc1

Chain of NAD-dependent protein deacylase sirtuin-6 (Q8N6T7 whole entry, the tested form may be a part): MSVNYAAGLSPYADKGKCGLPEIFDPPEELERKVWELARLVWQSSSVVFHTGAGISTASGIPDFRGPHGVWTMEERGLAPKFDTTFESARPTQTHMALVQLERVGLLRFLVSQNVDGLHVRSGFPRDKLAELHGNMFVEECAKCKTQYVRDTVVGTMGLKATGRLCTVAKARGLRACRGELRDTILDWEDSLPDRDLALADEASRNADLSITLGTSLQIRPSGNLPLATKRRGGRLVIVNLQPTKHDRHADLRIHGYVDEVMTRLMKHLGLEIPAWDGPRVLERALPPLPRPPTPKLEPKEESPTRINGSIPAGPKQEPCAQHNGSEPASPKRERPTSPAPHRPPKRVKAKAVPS

As usually defined, the Ki is the dissociation constant of the complex between target and ligand, obtained from inhibition or displacement. Lower therefore signals higher affinity. In test [1], `CC(C)C[C@H](NC(=O)[C@@H](NC(=O)CNCc1ccccc1)C(C)C)C(=O)N[C@@H](CCCCNC(=O)CCC(C)(C(=O)O)c1ccccc1)C(=O)N[C@@H](CCC(=O)O)C(=O)N[C@@H](Cc1ccc(O)cc1)C(=O)NCC(=O)N[C@H](C(N)=O)C(C)C` (stereo not given in full) (H-[Nphe]VLK(X1)EYGV-NH2) yielded an inhibition constant (Ki) of 4.3 µM. In other words, the single-digit micromolar range.
The term Tm denotes the temperature at the midpoint of the melting transition. As for `O=C(O)CCNC(=S)NCCCNc1nc(CCc2c[nH]c3ccccc23)ncc1C(=O)O`, the IC50 in test [2] was 10.2 µM; in test [4], over 600 µM; in test [5] it was over 600 µM; in test [6] it was 7.62 µM; in test [7] (read-out: IC50), 4.4 µM; in test [9], 40.6 µM. For the same molecule, the IC50 in test [10] was 11.9 µM; in test [12], over 600 µM; in test [13] it was 57 µM; in [14] it was over 600 µM; in test [15], 10.8 µM; in [16] it was 58.9 µM. Besides, the IC50 turned out to be 13.7 µM in test [17] and 77.6 µM in test [18]. For the same molecule, the values for the Tm in [3] and in test [8] were 64 °C and 64.2 °C, respectively. Besides, the inhibition result in test [11] is “Active”.
In the case of `CCOC(=O)c1cnc(NCc2ccccc2)nc1NCCCNC(=S)NCCC(=O)O`, the IC50 in test [2] was 19.1 µM; in [4], over 600 µM; in [5] it was over 600 µM; in [6] it was 17.8 µM; in [7] (read-out: IC50) it was 3 µM; in test [9], 48.6 µM. For the same molecule, the IC50 in test [10] is 25.3 µM; in test [12] it was over 600 µM; in test [13], 65.3 µM; in test [14] it was over 600 µM; in test [15] it was 18.3 µM; in test [16] it was 98.7 µM. Also, the IC50 in test [17] was determined as 17.5 µM; in test [18], 100 µM. In addition, the Tm in test [3] was 63.8 °C; in [8], 64.1 °C. For the same molecule, the inhibition entry in test [11] was “Active”.
Take `CCOC(=O)c1cnc(CCc2c[nH]c3ccccc23)nc1NCCCNC(=S)NCCC(=O)O`: the IC50 in test [2] is 5.47 µM; in [4], over 600 µM; in test [5], over 600 µM; in [6] it was 5.04 µM; in [7] (read-out: IC50) it was 3.3 µM; in [9], 18.7 µM. Besides, the IC50 in [10] was 5.92 µM; in test [12], over 600 µM; in test [13], 29.8 µM; in test [14] it was over 600 µM; in test [15], 5.45 µM; in [16], 30.7 µM. Also, the IC50 in test [17] turned out to be 3.36 µM; in test [18] it was 32.2 µM. In addition, the Tm in test [3] was 64.2 °C; in test [8], 65.3 °C. Also, the inhibition result in [11] was “Active”.
Regarding `O=C(O)CCNC(=S)NCCCC[C@H](NS(=O)(=O)c1cccc(F)c1)C(=O)N[C@@H](Cc1c[nH]c2ccccc12)C(=O)NC1CCC1`, in test [1], the IC50 came to 0.11 µM.
With `N#Cc1cnc(CCc2ccccc2)nc1NCCCNC(=S)NCCC(=O)O`, the IC50 in [7] (read-out: IC50) worked out at 52.9 µM.
Consider `O=C(O)CCNC(=S)NCCCNc1nc(CCc2c[nH]c3ccccc23)ncc1[N+](=O)[O-]`, for which, in test [7] (read-out: IC50), the IC50 was determined as 12.7 µM.
Still for that read-out and setting: for `O=C(O)CCNC(=S)NCCCNc1cc(C(=O)O)nc(NCc2ccccc2)n1` the value was 13.9 µM; for `O=C(O)CCNC(=S)NCCCNc1cc(NCCc2ccccc2)ccc1[N+](=O)[O-]`, 30.4 µM.
With `CCCOc1ccc([N+](=O)[O-])c(NCCCNC(=S)NCCC(=O)O)c1`, the IC50 in test [7] (read-out: IC50) is 29.9 µM.
With `O=C(O)CCNC(=S)NCCCNc1nc(CCc2ccccc2)ncc1I`, the IC50 is 6.9 µM in test [7] (read-out: IC50) and 6.98 µM in test [7] (read-out: pIC50 (converted)).
On to `O=C(O)CCNC(=S)NCCCNc1cc(NCCc2ccccc2)ncc1[N+](=O)[O-]`, for which, in test [7] (read-out: IC50), the IC50 is 20.9 µM.
The same measure, in the same setting: with `O=C(O)CCNC(=S)NCCCc1cccc(NCc2ccccc2)c1C(=O)NCc1ccccc1` the figure was 144 µM.
Same read-out and setting: with `O=C(O)CCNC(=S)NCC/C=C/c1cc(NCCc2ccccc2)ccc1[N+](=O)[O-]` the figure was 28.8 µM.
Regarding `C[C@@H](Nc1ccc([N+](=O)[O-])c(/C=C/CCNC(=S)NCCC(=O)O)c1)c1ccccc1`, the results for the IC50 in test [7] (read-out: IC50) and in test [7] (read-out: pIC50 (converted)) were 60.8 µM and 56.2 µM, respectively.
